Experimental findings from PubChem BioAssay AID1259407 (Chemical Carcinogenesis Research Information System (CCRIS), 2018) are described below.

In the series the test system is CCRIS mutagenicity, Ames/micronucleus/aberration tests. The experiment in a line: CCRIS mutagenicity studies.
[1] abbreviates: Test System: AMES SALMONELLA TYPHIMURIUM, Strain/Indicator: TA98, Metabolic Activation: NONE, Method: STANDARD PLATE.
Where [2] appears, read: Test System: AMES SALMONELLA TYPHIMURIUM, Strain/Indicator: TA100, Metabolic Activation: NONE, Method: STANDARD PLATE.
The mark [3] stands for this setting: Test System: AMES SALMONELLA TYPHIMURIUM, Strain/Indicator: TA100, Metabolic Activation: RAT, LIVER, S-9, AROCLOR 1254, Method: STANDARD PLATE.
Where [4] appears, read: Test System: AMES SALMONELLA TYPHIMURIUM, Strain/Indicator: TA1535, Metabolic Activation: NONE, Method: STANDARD PLATE.
Setting [5] is: Test System: AMES SALMONELLA TYPHIMURIUM, Strain/Indicator: TA100, Metabolic Activation: NONE, Method: PREINCUBATION
The mark [6] stands for this setting: Test System: AMES SALMONELLA TYPHIMURIUM, Strain/Indicator: TA100, Metabolic Activation: RAT, LIVER, S-9, AROCLOR 1254, Method: PREINCUBATION
Setting [7] is: Test System: AMES SALMONELLA TYPHIMURIUM, Strain/Indicator: TA98, Metabolic Activation: NONE, Method: PREINCUBATION

Structures are written as SMILES. Active and inactive are the calls of the source. No rule for the calls is given here.

Take `Cc1cc(Cl)ccc1OCC(=O)O`: the mutagenic call by setting is: (Test System: AMES SALMONELLA TYPHIMURIUM, Strain/Indicator: TA97, Metabolic Activation: NONE, Method: STANDARD PLATE) “inactive; negative”; (Test System: AMES SALMONELLA TYPHIMURIUM, Strain/Indicator: TA97, Metabolic Activation: RAT, LIVER, S-9, AROCLOR 1254, Method: STANDARD PLATE) “inactive; negative”; (Test System: AMES SALMONELLA TYPHIMURIUM, Strain/Indicator: TA97A, Metabolic Activation: NONE, Method: STANDARD PLATE) “inactive; negative”; (Test System: AMES SALMONELLA TYPHIMURIUM, Strain/Indicator: TA97A, Metabolic Activation: RAT, LIVER, S-9, AROCLOR 1254, Method: STANDARD PLATE) “inactive; negative”; under setting [1], “inactive; negative”; (Test System: AMES SALMONELLA TYPHIMURIUM, Strain/Indicator: TA98, Metabolic Activation: RAT, LIVER, S-9, AROCLOR 1254, Method: STANDARD PLATE) “inactive; negative”. The mutagenic call reads like this: under setting [2], “inactive; negative”; under setting [3], “inactive; negative”; (Test System: AMES SALMONELLA TYPHIMURIUM, Strain/Indicator: TA102, Metabolic Activation: NONE, Method: STANDARD PLATE) “inactive; negative”; (Test System: AMES SALMONELLA TYPHIMURIUM, Strain/Indicator: TA102, Metabolic Activation: RAT, LIVER, S-9, AROCLOR 1254, Method: STANDARD PLATE) “inactive; negative”; under setting [4], “inactive; negative”; (Test System: AMES SALMONELLA TYPHIMURIUM, Strain/Indicator: TA1535, Metabolic Activation: RAT, LIVER, S-9, AROCLOR 1254, Method: STANDARD PLATE) “inactive; negative”. In addition, the mutagenic call reads like this: (Test System: AMES SALMONELLA TYPHIMURIUM, Strain/Indicator: TA1537, Metabolic Activation: NONE, Method: STANDARD PLATE) “inactive; negative”; (Test System: AMES SALMONELLA TYPHIMURIUM, Strain/Indicator: TA1537, Metabolic Activation: RAT, LIVER, S-9, AROCLOR 1254, Method: STANDARD PLATE) “inactive; negative”; (Test System: AMES SALMONELLA TYPHIMURIUM, Strain/Indicator: TA1538, Metabolic Activation: NONE, Method: STANDARD PLATE) “inactive; negative”; (Test System: AMES SALMONELLA TYPHIMURIUM, Strain/Indicator: TA1538, Metabolic Activation: RAT, LIVER, S-9, AROCLOR 1254, Method: STANDARD PLATE) “inactive; negative”.

Turning to `c1ccc2c(c1)ccc1nc3ccc4c(c3cc12)CCCC4`, the mutagenic call reads like this: (Test System: AMES SALMONELLA TYPHIMURIUM, Strain/Indicator: TA98, Metabolic Activation: GUINEA PIG, LIVER, S-9, 3-METHYLCHOLANTHRENE, Method: STANDARD PLATE) “inactive; negative”; (Test System: AMES SALMONELLA TYPHIMURIUM, Strain/Indicator: TA100, Metabolic Activation: GUINEA PIG, LIVER, S-9, 3-METHYLCHOLANTHRENE, Method: STANDARD PLATE) “active; positive”.

Turning to `NC(=O)CC1CO1` (configuration not stated), the mutagenic call reads like this: under setting [5], “active; positive”; under setting [2], “active; positive”; under setting [6], “active; positive”; under setting [3], “active; positive”.

In the case of `O=[N+]([O-])C1=Cc2cccc3cccc(c23)O1`, the mutagenic call under setting [1] was “inactive; negative”; the mutagenic call (Test System: AMES SALMONELLA TYPHIMURIUM, Strain/Indicator: TA98, Metabolic Activation: S-9, Method: STANDARD PLATE) was “inactive; negative”; the mutagenic call under setting [2] is “active; positive”; the mutagenic call (Test System: AMES SALMONELLA TYPHIMURIUM, Strain/Indicator: TA100, Metabolic Activation: S-9, Method: STANDARD PLATE) is “inactive; negative”.

On to `Cc1c(N)cccc1N=Nc1cccc(N)c1C`, for which the mutagenic call reads like this: under setting [7], “inactive; negative”; (Test System: AMES SALMONELLA TYPHIMURIUM, Strain/Indicator: TA98, Metabolic Activation: RAT, LIVER, S-9, PHENOBARBITAL AND 5,6-BENZOFLAVONE, Method: PREINCUBATION) “active; positive”; under setting [5], “inactive; negative”; (Test System: AMES SALMONELLA TYPHIMURIUM, Strain/Indicator: TA100, Metabolic Activation: RAT, LIVER, S-9, PHENOBARBITAL AND 5,6-BENZOFLAVONE, Method: PREINCUBATION) “active; positive”.

Consider `CCn1c2ccccc2c2cc(N)ccc21`, for which the mutagenic call reads like this: (Test System: AMES SALMONELLA TYPHIMURIUM, Strain/Indicator: TA98, Metabolic Activation: HAMSTER, LIVER, S-9, AROCLOR 1254, Method: PREINCUBATION) “active; positive”; under setting [7], “inactive; negative”; (Test System: AMES SALMONELLA TYPHIMURIUM, Strain/Indicator: TA98, Metabolic Activation: RAT, LIVER, S-9, AROCLOR 1254, Method: PREINCUBATION) “active; positive”; (Test System: AMES SALMONELLA TYPHIMURIUM, Strain/Indicator: TA100, Metabolic Activation: HAMSTER, LIVER, S-9, AROCLOR 1254, Method: PREINCUBATION) “active; positive”; under setting [5], “inactive; negative”; under setting [6], “active; positive”. Further, the mutagenic call is “inactive; negative” (Test System: AMES SALMONELLA TYPHIMURIUM, Strain/Indicator: TA1535, Metabolic Activation: HAMSTER, LIVER, S-9, AROCLOR 1254, Method: PREINCUBATION); “inactive; negative” (Test System: AMES SALMONELLA TYPHIMURIUM, Strain/Indicator: TA1535, Metabolic Activation: NONE, Method: PREINCUBATION); “inactive; negative” (Test System: AMES SALMONELLA TYPHIMURIUM, Strain/Indicator: TA1535, Metabolic Activation: RAT, LIVER, S-9, AROCLOR 1254, Method: PREINCUBATION); “active; positive” (Test System: AMES SALMONELLA TYPHIMURIUM, Strain/Indicator: TA1537, Metabolic Activation: HAMSTER, LIVER, S-9, AROCLOR 1254, Method: PREINCUBATION); “inactive; negative” (Test System: AMES SALMONELLA TYPHIMURIUM, Strain/Indicator: TA1537, Metabolic Activation: NONE, Method: PREINCUBATION); “active; positive” (Test System: AMES SALMONELLA TYPHIMURIUM, Strain/Indicator: TA1537, Metabolic Activation: RAT, LIVER, S-9, AROCLOR 1254, Method: PREINCUBATION).

For the compound `c1ccc(-c2ccc(OCC3CO3)cc2)cc1` (configuration not stated), the mutagenic call under setting [2] is “active; positive” and the mutagenic call under setting [4] was “active; positive”.

Regarding `C=CC(O)c1ccc2c(c1)OCO2` (configuration not stated), the mutagenic call (Test System: UDS HUMAN FIBROBLASTS, Strain/Indicator: THY INCORP (NON-S-PHASE), Metabolic Activation: NONE, Method: AUTORADIOGRAPHY) was “active; positive”.

In the case of `C[C@H]1[C@H](O)CCC2=CC(=O)[C@]3([C@@]4(CO)CO4)O[C@@H]3[C@@]21C`, the mutagenic call under setting [2] is “active; positive” and the mutagenic call (Test System: E. COLI, Strain/Indicator: WP2 UVRA, Metabolic Activation: NONE, Method: STANDARD PLATE) was “active; positive”.
